Experimental data as given in the OligoGym collection.
Several values for one entry are separate records, joined by “and”; a condition that tells them apart may be missing. Equal entries are not always repeated. After the bases stand the sugars from the 5' end (letter, count) and the backbone: PS all phosphorothioate, else s phosphorothioate and o phosphodiester by linkage. Methylation of C is not given here. e = 2'-O-(2-methoxyethyl) (MOE); k = constrained ethyl (cEt); d = 2'-deoxy (DNA); m = 2'-O-methyl

Biological target: HSD17B13
Conditions: ASO, HepaRG

**Q.** For TAATCTTGAGGCAGGA (sugars k3 d10 k3, PS), which target mRNA inhibition (1 µM) is on record?
**A.** 17%

**Q.** Which target mRNA inhibition (1 µM) does the source give for TACACCACACTAATGA (sugars k3 d10 k3, PS) here?
**A.** 26%

**Q.** For TACAGACTAAGGGACC (sugars k3 d10 k3, PS), which target mRNA inhibition (1 µM) is on record?
**A.** 68%

**Q.** With “TACAGATTGGAATGCT (sugars kkdddddddddkekek, PS)” as the sequence, how does the target mRNA inhibition (1 µM) read?
**A.** 35%

**Q.** TACAGTTCCTTTTCCT (sugars k3 d10 k3, PS) was tested. Which target mRNA inhibition (1 µM) did it give?
**A.** 68%

**Q.** For TACATCACCCACTTCT (sugars k3 d10 k3, PS), which target mRNA inhibition (1 µM) is on record?
**A.** 37%

**Q.** TACATTACAGCCTTAG (sugars k3 d10 k3, PS) was tested. Which target mRNA inhibition (0.02 µM) did it give?
**A.** 0%

**Q.** And the target mRNA inhibition (0.078 µM)?
**A.** 2%

**Q.** What about the target mRNA inhibition (0.313 µM) of the same sequence?
**A.** 15%

**Q.** And the target mRNA inhibition (1 µM)?
**A.** 75%

**Q.** What about the target mRNA inhibition (1.25 µM) of the same sequence?
**A.** 71%

**Q.** What about the target mRNA inhibition (5 µM) of the same sequence?
**A.** 85%

**Q.** How did the target mRNA inhibition (1 µM) turn out when TACATTCTTCAGGTGT (sugars k3 d10 k3, PS) was run?
**A.** 61%

**Q.** Which target mRNA inhibition (1 µM) does the source give for TACCAAACTTGCCCAT (sugars k3 d10 k3, PS) here?
**A.** 33%

**Q.** TACCAATATGGGATGA (sugars k3 d10 k3, PS) was tested. Which target mRNA inhibition (1 µM) did it give?
**A.** 1%

**Q.** “TACCUCTAAGTTAGCC (sugars k3 d1 m1 d8 k3, PS)” was tested. Which target mRNA inhibition (1 µM) did it give?
**A.** 13%

**Q.** Which target mRNA inhibition (1 µM) does the source give for TACGACAGGTCATCTT (sugars k3 d10 k3, PS) here?
**A.** 58%

**Q.** TACGACTTCATCTGTC (sugars k3 d10 k3, PS) was tested. Which target mRNA inhibition (1 µM) did it give?
**A.** 29%

**Q.** For TACGACTTCCTTCTAA (sugars k3 d10 k3, PS), which target mRNA inhibition (1 µM) is on record?
**A.** 67%

**Q.** How did the target mRNA inhibition (1 µM) turn out when TACGCATGCGCAGTGA (sugars k3 d10 k3, PS) was run?
**A.** 60%

**Q.** How did the target mRNA inhibition (0.02 µM) turn out when TACTAATGTCCAAGGA (sugars k3 d10 k3, PS) was run?
**A.** 4%

**Q.** And the target mRNA inhibition (0.078 µM)?
**A.** 0%

**Q.** And the target mRNA inhibition (0.313 µM)?
**A.** 38%

**Q.** And the target mRNA inhibition (1 µM)?
**A.** 77%

**Q.** And the target mRNA inhibition (1.25 µM)?
**A.** 64%

**Q.** And the target mRNA inhibition (5 µM)?
**A.** 75%

**Q.** How did the target mRNA inhibition (1 µM) turn out when TACTCTAGGAGATATA (sugars k3 d10 k3, PS) was run?
**A.** 33%

**Q.** Which target mRNA inhibition (1 µM) does the source give for TACTTACCAATATGGG (sugars k3 d10 k3, PS) here?
**A.** 13%

**Q.** Which target mRNA inhibition (1 µM) does the source give for TACTTTTAGGGAGGTA (sugars k3 d10 k3, PS) here?
**A.** 28%

**Q.** For “TACTUGAACAGTCTTA (sugars k3 d1 m1 d8 k3, PS)”, which target mRNA inhibition (1 µM) is on record?
**A.** 38%

**Q.** With TAGAAACTGCTCCTCA (sugars k3 d10 k3, PS) as the sequence, how does the target mRNA inhibition (1 µM) read?
**A.** 32%

**Q.** Which target mRNA inhibition (1 µM) does the source give for “TAGAATAGTCTTCAGC (sugars k3 d1 m1 d8 k3, PS)” here?
**A.** 30%

**Q.** How did the target mRNA inhibition (1 µM) turn out when “TAGAGTCGGTCACCTT (sugars k3 d1 m1 d8 k3, PS)” was run?
**A.** 55%

**Q.** For TAGAGTTGCACCGTTT (sugars k3 d10 k3, PS), which target mRNA inhibition (1 µM) is on record?
**A.** 58%

**Q.** With TAGCAGCTAAAATCCA (sugars k3 d10 k3, PS) as the sequence, how does the target mRNA inhibition (1 µM) read?
**A.** 66%

**Q.** How did the target mRNA inhibition (1 µM) turn out when “TAGCCAGTACAGTTCC (sugars k3 d9 k3 e1, PS)” was run?
**A.** 58%

**Q.** Which target mRNA inhibition (0.02 µM) does the source give for “TAGCTGTGCACTCATT (sugars k3 d9 k3 e1, PS)” here?
**A.** 3%

**Q.** What about the target mRNA inhibition (0.078 µM) of the same sequence?
**A.** 0%

**Q.** And the target mRNA inhibition (0.313 µM)?
**A.** 8%

**Q.** And the target mRNA inhibition (1 µM)?
**A.** 66%

**Q.** And the target mRNA inhibition (1.25 µM)?
**A.** 57%

**Q.** And the target mRNA inhibition (5 µM)?
**A.** 76%

**Q.** With TAGCTGTGCACTCATT (sugars k3 d10 k3, PS) as the sequence, how does the target mRNA inhibition (1 µM) read?
**A.** 40%

**Q.** For TAGGCTAAAATGGTCA (sugars k3 d10 k3, PS), which target mRNA inhibition (1 µM) is on record?
**A.** 59%

**Q.** Which target mRNA inhibition (1 µM) does the source give for TAGGCTTAGTGTAGAA (sugars k3 d10 k3, PS) here?
**A.** 38%

**Q.** For “TAGTAATCACAAGTAA (sugars k3 d1 m1 d8 k3, PS)”, which target mRNA inhibition (1 µM) is on record?
**A.** 38%

**Q.** For “TAGTAATCACAAGTAA (sugars kkdddddddddkekek, PS)”, which target mRNA inhibition (1 µM) is on record?
**A.** 55%

**Q.** Which target mRNA inhibition (1 µM) does the source give for TAGTATAGTTATCTTC (sugars k3 d10 k3, PS) here?
**A.** 28%

**Q.** “TAGTCTTCAGCAAAGT (sugars k3 d9 k3 e1, PS)” was tested. Which target mRNA inhibition (1 µM) did it give?
**A.** 36%

**Q.** Which target mRNA inhibition (1 µM) does the source give for TAGTCTTCAGCAAAGT (sugars k3 d10 k3, PS) here?
**A.** 49%

**Q.** “TAGTCTTGATGTAGTG (sugars k3 d9 k3 e1, PS)” was tested. Which target mRNA inhibition (1 µM) did it give?
**A.** 61%

**Q.** For TAGTGCCAAACCAATG (sugars k3 d10 k3, PS), which target mRNA inhibition (1 µM) is on record?
**A.** 46% and 61%

**Q.** Which target mRNA inhibition (0.02 µM) does the source give for “TAGTGCCAAACCAATG (sugars kkdddddddddkekek, PS)” here?
**A.** 11%

**Q.** What about the target mRNA inhibition (0.078 µM) of the same sequence?
**A.** 18%

**Q.** What about the target mRNA inhibition (0.313 µM) of the same sequence?
**A.** 27%

**Q.** And the target mRNA inhibition (1 µM)?
**A.** 66%

**Q.** And the target mRNA inhibition (1.25 µM)?
**A.** 53%

**Q.** And the target mRNA inhibition (5 µM)?
**A.** 57%

**Q.** “TAGTGGACTTCATTAG (sugars k3 d9 k3 e1, PS)” was tested. Which target mRNA inhibition (1 µM) did it give?
**A.** 22%

**Q.** With “TAGTGTAAGCTGAGAG (sugars k3 d9 k3 e1, PS)” as the sequence, how does the target mRNA inhibition (0.02 µM) read?
**A.** 6%

**Q.** What about the target mRNA inhibition (0.078 µM) of the same sequence?
**A.** 13%

**Q.** And the target mRNA inhibition (0.313 µM)?
**A.** 52%

**Q.** What about the target mRNA inhibition (1 µM) of the same sequence?
**A.** 82%

**Q.** What about the target mRNA inhibition (1.25 µM) of the same sequence?
**A.** 69%

**Q.** And the target mRNA inhibition (5 µM)?
**A.** 79%

**Q.** For TAGTGTAAGCTGAGAG (sugars k3 d10 k3, PS), which target mRNA inhibition (0.02 µM) is on record?
**A.** 0%

**Q.** What about the target mRNA inhibition (0.078 µM) of the same sequence?
**A.** 0%

**Q.** What about the target mRNA inhibition (0.313 µM) of the same sequence?
**A.** 2%

**Q.** And the target mRNA inhibition (1 µM)?
**A.** 75%

**Q.** What about the target mRNA inhibition (1.25 µM) of the same sequence?
**A.** 48%

**Q.** What about the target mRNA inhibition (5 µM) of the same sequence?
**A.** 83%
